Legend:
Assay in all cases: radiometric filter-binding kinase assay, Kinase HotSpot
Conditions in all cases: compound 0.5 µM; ATP 10 µM
ABL1 (human) = ABL1 (human) (UniProt P00519)
ACVR1 (human) = ACVR1 (human) (UniProt Q04771)
ADRBK2 (human) = ADRBK2 (human) (UniProt P35626)
AKT3 (human) = AKT3 (human) (UniProt Q9Y243)
BLK (human) = BLK (human) (UniProt P51451)
BRSK1 (human) = BRSK1 (human) (UniProt Q8TDC3)
CAMK1G (human) = CAMK1G (human) (UniProt Q96NX5)
CDC42BPB (human) = CDC42BPB (human) (UniProt Q9Y5S2)
CDK3 CCNE1 (human) = CDK3 CCNE1 (human) (UniProt Q00526+P24864)
CDK5 CDK5R1 p25 (human) = CDK5 CDK5R1 p25 (human) (UniProt Q00535+Q15078)
CDK5 CDK5R1 p25 (human), sequence (Q00535 whole entry, looked up): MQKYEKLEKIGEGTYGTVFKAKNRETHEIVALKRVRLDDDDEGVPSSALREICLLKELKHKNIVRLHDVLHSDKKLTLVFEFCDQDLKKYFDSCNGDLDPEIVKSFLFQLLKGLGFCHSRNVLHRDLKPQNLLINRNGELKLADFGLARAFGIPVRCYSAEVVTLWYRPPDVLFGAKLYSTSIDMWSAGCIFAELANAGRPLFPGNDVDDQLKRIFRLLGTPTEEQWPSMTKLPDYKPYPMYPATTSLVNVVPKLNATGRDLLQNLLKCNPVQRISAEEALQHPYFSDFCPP
CDK5 CDK5R1 p25 (human), sequence (Q15078 whole entry, looked up): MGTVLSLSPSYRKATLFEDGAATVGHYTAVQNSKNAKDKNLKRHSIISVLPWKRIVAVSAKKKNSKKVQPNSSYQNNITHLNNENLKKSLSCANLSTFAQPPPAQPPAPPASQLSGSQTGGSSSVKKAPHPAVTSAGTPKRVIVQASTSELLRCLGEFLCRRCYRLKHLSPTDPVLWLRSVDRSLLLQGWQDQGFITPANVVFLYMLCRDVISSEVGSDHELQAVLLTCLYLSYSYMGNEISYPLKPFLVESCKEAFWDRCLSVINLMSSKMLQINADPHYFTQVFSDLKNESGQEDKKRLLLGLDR

CDK7 CCNH MNAT1 (human) = CDK7 CCNH MNAT1 (human) (UniProt P50613+P51948+P51946)
CDK7 CCNH MNAT1 (human), sequence (P50613 whole entry, looked up): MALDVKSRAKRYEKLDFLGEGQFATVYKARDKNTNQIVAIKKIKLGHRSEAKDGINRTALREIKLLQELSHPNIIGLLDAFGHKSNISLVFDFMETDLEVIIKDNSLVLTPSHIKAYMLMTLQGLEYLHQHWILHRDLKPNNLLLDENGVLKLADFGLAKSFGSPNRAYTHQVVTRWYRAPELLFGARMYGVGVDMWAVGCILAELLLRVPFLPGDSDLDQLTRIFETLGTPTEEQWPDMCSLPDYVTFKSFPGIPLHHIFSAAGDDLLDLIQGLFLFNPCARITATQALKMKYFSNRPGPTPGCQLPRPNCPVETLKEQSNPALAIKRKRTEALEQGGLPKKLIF
CDK7 CCNH MNAT1 (human), sequence (P51946 whole entry, looked up): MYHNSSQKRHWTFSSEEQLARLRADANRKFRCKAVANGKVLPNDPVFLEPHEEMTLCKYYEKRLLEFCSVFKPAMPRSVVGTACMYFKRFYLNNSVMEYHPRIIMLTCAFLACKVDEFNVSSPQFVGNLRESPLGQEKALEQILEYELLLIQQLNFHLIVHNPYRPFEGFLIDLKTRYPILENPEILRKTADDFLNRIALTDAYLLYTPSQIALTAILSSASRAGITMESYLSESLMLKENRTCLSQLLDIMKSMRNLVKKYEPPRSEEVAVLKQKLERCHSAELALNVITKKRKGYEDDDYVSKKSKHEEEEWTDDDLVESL
CDK7 CCNH MNAT1 (human), sequence (P51948 whole entry, looked up): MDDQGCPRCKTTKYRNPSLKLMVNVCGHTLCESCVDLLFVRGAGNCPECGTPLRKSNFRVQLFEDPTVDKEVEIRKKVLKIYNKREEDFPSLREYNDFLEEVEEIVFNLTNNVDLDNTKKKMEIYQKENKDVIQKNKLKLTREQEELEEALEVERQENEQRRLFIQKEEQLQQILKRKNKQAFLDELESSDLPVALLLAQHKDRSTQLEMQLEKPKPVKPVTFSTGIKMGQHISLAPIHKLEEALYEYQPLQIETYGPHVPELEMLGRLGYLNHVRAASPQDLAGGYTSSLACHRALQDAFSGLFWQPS

CSNK1D (human) = CSNK1D (human) (UniProt P48730)
CSNK1G2 (human) = CSNK1G2 (human) (UniProt P78368)
CSNK1G2 (human), sequence (P78368 whole entry, looked up): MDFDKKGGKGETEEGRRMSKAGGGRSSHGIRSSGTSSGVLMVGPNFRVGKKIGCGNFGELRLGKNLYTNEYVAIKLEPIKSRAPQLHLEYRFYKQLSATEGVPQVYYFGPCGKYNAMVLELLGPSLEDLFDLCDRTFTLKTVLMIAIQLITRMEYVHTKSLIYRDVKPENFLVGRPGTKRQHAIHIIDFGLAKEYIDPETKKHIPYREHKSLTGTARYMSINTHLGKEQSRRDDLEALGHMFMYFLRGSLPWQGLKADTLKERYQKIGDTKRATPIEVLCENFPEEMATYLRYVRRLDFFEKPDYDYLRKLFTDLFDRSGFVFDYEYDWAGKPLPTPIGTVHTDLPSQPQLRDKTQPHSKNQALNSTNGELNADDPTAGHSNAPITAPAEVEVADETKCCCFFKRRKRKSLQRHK

CSNK2A1 (human) = CSNK2A1 (human) (UniProt P68400)
DAPK3 (human) = DAPK3 (human) (UniProt O43293)
DYRK1A (human) = DYRK1A (human) (UniProt Q13627)
DYRK1B (human) = DYRK1B (human) (UniProt Q9Y463)
DYRK4 (human) = DYRK4 (human) (UniProt Q9NR20)
EPHA5 (human) = EPHA5 (human) (UniProt P54756)
EPHA7 (human) = EPHA7 (human) (UniProt Q15375)
FGFR4 (human) = FGFR4 (human) (UniProt P22455)
FLT3 (human) = FLT3 (human) (UniProt P36888)
GRK4 (human) = GRK4 (human) (UniProt P32298)
IGF1R (human) = IGF1R (human) (UniProt P08069)
MAP4K5 (human) = MAP4K5 (human) (UniProt Q9Y4K4)
MAPK11 (human) = MAPK11 (human) (UniProt Q15759)
MYLK2 (human) = MYLK2 (human) (UniProt Q9H1R3)
NEK2 (human) = NEK2 (human) (UniProt P51955)
NEK3 (human) = NEK3 (human) (UniProt P51956)
PBK (human) = PBK (human) (UniProt Q96KB5)
PBK (human), sequence (Q96KB5 whole entry, looked up): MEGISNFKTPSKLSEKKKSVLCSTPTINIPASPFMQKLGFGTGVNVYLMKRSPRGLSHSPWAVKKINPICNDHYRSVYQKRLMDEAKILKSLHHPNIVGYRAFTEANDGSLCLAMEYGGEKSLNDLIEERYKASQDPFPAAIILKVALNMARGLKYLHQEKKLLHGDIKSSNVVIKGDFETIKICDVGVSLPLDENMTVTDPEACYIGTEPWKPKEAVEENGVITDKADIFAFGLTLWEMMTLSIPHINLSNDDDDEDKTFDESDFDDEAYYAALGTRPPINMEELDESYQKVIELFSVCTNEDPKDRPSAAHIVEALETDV

PLK3 (human) = PLK3 (human) (UniProt Q9H4B4)
PRKCB2 (human) = PRKCB2 (human) (UniProt P05771)
PRKCB2 (human), sequence (P05771 whole entry, looked up): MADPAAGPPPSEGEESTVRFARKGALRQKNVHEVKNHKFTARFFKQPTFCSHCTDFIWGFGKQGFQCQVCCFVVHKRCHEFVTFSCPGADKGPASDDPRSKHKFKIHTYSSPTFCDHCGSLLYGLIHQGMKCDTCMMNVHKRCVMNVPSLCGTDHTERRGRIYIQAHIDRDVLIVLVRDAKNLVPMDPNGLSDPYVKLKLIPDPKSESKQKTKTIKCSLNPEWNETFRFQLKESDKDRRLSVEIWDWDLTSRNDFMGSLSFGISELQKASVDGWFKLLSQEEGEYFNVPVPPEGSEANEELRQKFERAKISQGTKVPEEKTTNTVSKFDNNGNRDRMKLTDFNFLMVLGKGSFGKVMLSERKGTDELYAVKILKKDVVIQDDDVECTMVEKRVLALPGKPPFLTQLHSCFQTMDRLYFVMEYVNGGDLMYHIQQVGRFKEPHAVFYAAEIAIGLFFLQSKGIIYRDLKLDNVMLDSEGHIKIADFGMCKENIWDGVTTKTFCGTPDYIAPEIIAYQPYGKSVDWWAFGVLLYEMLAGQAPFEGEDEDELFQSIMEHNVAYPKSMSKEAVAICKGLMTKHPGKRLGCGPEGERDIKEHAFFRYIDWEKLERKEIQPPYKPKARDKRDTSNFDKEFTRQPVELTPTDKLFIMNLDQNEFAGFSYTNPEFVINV

RIPK2 (human) = RIPK2 (human) (UniProt O43353)
ROS1 (human) = ROS1 (human) (UniProt P08922)
RPS6KA2 KD1 KD2 (human) = RPS6KA2 KD1 KD2 (human) (UniProt Q15349)
RPS6KA5 KD2 (human) = RPS6KA5 KD2 (human) (UniProt O75582)
SGK3 (human) = SGK3 (human) (UniProt Q96BR1)
SIK2 (human) = SIK2 (human) (UniProt Q9H0K1)
TLK2 (human) = TLK2 (human) (UniProt Q86UE8)
TSSK1B (human) = TSSK1B (human) (UniProt Q9BXA7)
WEE1 (human) = WEE1 (human) (UniProt P30291)

BLK (human), sequence (P51451 whole entry, looked up): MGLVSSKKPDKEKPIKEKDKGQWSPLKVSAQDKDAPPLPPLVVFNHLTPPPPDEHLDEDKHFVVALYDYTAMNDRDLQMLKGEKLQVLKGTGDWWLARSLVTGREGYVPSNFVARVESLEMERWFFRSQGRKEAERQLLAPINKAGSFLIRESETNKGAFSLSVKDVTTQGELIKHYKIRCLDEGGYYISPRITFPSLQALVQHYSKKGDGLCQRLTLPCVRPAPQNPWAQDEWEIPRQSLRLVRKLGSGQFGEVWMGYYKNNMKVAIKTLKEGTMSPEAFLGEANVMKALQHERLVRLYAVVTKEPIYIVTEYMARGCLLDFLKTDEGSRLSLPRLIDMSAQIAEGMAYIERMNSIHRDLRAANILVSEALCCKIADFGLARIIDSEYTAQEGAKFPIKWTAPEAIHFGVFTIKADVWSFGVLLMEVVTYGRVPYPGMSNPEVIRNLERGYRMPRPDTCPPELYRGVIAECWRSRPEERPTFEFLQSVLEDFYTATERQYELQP
ADRBK2 (human), sequence (P35626 whole entry, looked up): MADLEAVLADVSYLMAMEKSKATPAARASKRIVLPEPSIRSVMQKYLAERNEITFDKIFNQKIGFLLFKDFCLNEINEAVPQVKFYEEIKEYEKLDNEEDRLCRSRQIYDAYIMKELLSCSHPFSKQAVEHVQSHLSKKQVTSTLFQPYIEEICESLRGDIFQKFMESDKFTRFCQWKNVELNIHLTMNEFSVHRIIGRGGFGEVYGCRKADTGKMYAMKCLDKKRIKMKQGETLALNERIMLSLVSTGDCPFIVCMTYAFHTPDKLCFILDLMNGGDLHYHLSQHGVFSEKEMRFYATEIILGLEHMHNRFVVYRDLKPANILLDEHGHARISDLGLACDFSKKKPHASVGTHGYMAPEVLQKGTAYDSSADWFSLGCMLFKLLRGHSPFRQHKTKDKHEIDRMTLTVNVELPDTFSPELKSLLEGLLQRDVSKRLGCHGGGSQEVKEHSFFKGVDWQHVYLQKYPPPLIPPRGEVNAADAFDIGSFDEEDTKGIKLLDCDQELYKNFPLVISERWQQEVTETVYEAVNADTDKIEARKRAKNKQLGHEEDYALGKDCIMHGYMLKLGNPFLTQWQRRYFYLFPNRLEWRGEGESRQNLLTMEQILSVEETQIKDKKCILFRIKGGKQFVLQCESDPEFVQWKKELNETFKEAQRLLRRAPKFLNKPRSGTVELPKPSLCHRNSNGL
BRSK1 (human), sequence (Q8TDC3 whole entry, looked up): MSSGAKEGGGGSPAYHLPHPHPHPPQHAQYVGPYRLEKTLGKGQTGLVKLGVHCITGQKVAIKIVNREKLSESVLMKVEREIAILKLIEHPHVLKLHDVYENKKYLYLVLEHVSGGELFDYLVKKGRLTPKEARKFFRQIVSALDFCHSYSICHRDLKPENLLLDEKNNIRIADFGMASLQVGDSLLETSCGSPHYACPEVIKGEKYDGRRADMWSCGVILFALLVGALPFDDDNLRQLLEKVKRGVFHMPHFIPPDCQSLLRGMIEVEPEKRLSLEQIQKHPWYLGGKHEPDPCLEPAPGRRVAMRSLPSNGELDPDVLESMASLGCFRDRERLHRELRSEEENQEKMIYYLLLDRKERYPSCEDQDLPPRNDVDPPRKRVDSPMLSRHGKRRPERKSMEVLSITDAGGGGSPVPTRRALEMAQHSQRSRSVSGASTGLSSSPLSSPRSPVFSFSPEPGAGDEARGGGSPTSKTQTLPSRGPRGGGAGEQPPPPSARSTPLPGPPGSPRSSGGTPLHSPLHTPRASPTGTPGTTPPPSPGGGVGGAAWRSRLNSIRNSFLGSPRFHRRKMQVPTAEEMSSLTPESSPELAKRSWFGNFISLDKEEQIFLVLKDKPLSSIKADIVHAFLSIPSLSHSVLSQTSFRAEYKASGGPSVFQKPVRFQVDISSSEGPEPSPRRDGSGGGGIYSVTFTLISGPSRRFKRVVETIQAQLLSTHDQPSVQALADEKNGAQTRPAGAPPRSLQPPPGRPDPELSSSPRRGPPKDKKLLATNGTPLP

O=C1NC(=O)C(c2cn(CCCn3ccnc3)c3ccccc23)=C1Nc1ccccc1
residual activity (ABL1 (human)): 96.1% | residual activity (ACVR1 (human)): 94.4% | residual activity (ADRBK2 (human)): 97.9% | residual activity (AKT3 (human)): 71% | residual activity (BLK (human)): 90.9% | residual activity (BRSK1 (human)): 95.3% | residual activity (CAMK1G (human)): 84.6% | residual activity (CDC42BPB (human)): 105% | residual activity (CDK3 CCNE1 (human)): 90.9% | residual activity (CDK5 CDK5R1 p25 (human)): 86% | residual activity (CDK7 CCNH MNAT1 (human)): 96.3% | residual activity (CSNK1D (human)): 102% | residual activity (CSNK1G2 (human)): 95.4% | residual activity (CSNK2A1 (human)): 100% | residual activity (DAPK3 (human)): 104% | residual activity (DYRK1A (human)): 30.8% | residual activity (DYRK1B (human)): 56.3% | residual activity (DYRK4 (human)): 89% | residual activity (EPHA5 (human)): 96.1% | residual activity (EPHA7 (human)): 89.5% | residual activity (FGFR4 (human)): 74.6% | residual activity (FLT3 (human)): 8.21% | residual activity (GRK4 (human)): 91.6% | residual activity (IGF1R (human)): 95.3% | residual activity (MAP4K5 (human)): 66.5% | residual activity (MAPK11 (human)): 111% | residual activity (MYLK2 (human)): 95.7% | residual activity (NEK2 (human)): 106% | residual activity (NEK3 (human)): 99.5% | residual activity (PBK (human)): 104% | residual activity (PLK3 (human)): 99.8% | residual activity (PRKCB2 (human)): 4.29% | residual activity (RIPK2 (human)): 84.3% | residual activity (ROS1 (human)): 78.7% | residual activity (RPS6KA2 KD1 KD2 (human)): 3.17% | residual activity (RPS6KA5 KD2 (human)): 36.9% | residual activity (SGK3 (human)): 89.9% | residual activity (SIK2 (human)): 90.3% | residual activity (TLK2 (human)): 74.1% | residual activity (TSSK1B (human)): 102% | residual activity (WEE1 (human)): 95.8%

N#CC(C#N)=C(N)/C(C#N)=C/c1ccc(O)cc1
residual activity (ABL1 (human)): 103% | residual activity (ACVR1 (human)): 93.8% | residual activity (ADRBK2 (human)): 96.7% | residual activity (AKT3 (human)): 95.8% | residual activity (BLK (human)): 101% | residual activity (BRSK1 (human)): 99.2% | residual activity (CAMK1G (human)): 104% | residual activity (CDC42BPB (human)): 109% | residual activity (CDK3 CCNE1 (human)): 96.8% | residual activity (CDK5 CDK5R1 p25 (human)): 97.6% | residual activity (CDK7 CCNH MNAT1 (human)): 91.2% | residual activity (CSNK1D (human)): 98.7% | residual activity (CSNK1G2 (human)): 104% | residual activity (CSNK2A1 (human)): 104% | residual activity (DAPK3 (human)): 91.1% | residual activity (DYRK1A (human)): 95.9% | residual activity (DYRK1B (human)): 101% | residual activity (DYRK4 (human)): 107% | residual activity (EPHA5 (human)): 94.3% | residual activity (EPHA7 (human)): 90.5% | residual activity (FGFR4 (human)): 91.1% | residual activity (FLT3 (human)): 92.2% | residual activity (GRK4 (human)): 99.6% | residual activity (IGF1R (human)): 90.6% | residual activity (MAP4K5 (human)): 99.6% | residual activity (MAPK11 (human)): 100% | residual activity (MYLK2 (human)): 99.4% | residual activity (NEK2 (human)): 102% | residual activity (NEK3 (human)): 98% | residual activity (PBK (human)): 96.4% | residual activity (PLK3 (human)): 63.6% | residual activity (PRKCB2 (human)): 111% | residual activity (RIPK2 (human)): 95.5% | residual activity (ROS1 (human)): 97.1% | residual activity (RPS6KA2 KD1 KD2 (human)): 96.2% | residual activity (RPS6KA5 KD2 (human)): 96.7% | residual activity (SGK3 (human)): 103% | residual activity (SIK2 (human)): 87.7% | residual activity (TLK2 (human)): 89.4% | residual activity (TSSK1B (human)): 111% | residual activity (WEE1 (human)): 93.7%

Nc1ccc2ncnc(NCCc3ccc(Oc4ccccc4)cc3)c2c1
residual activity (ABL1 (human)): 89.7% | residual activity (ACVR1 (human)): 91.8% | residual activity (ADRBK2 (human)): 97.9% | residual activity (AKT3 (human)): 104% | residual activity (BLK (human)): 97.1% | residual activity (BRSK1 (human)): 101% | residual activity (CAMK1G (human)): 102% | residual activity (CDC42BPB (human)): 105% | residual activity (CDK3 CCNE1 (human)): 94.8% | residual activity (CDK5 CDK5R1 p25 (human)): 90.6% | residual activity (CDK7 CCNH MNAT1 (human)): 99.3% | residual activity (CSNK1D (human)): 100% | residual activity (CSNK1G2 (human)): 100% | residual activity (CSNK2A1 (human)): 95.2% | residual activity (DAPK3 (human)): 104% | residual activity (DYRK1A (human)): 101% | residual activity (DYRK1B (human)): 104% | residual activity (DYRK4 (human)): 93.7% | residual activity (EPHA5 (human)): 102% | residual activity (EPHA7 (human)): 104% | residual activity (FGFR4 (human)): 104% | residual activity (FLT3 (human)): 103% | residual activity (GRK4 (human)): 99.6% | residual activity (IGF1R (human)): 99.7% | residual activity (MAP4K5 (human)): 94.8% | residual activity (MAPK11 (human)): 98.1% | residual activity (MYLK2 (human)): 97.6% | residual activity (NEK2 (human)): 90% | residual activity (NEK3 (human)): 108% | residual activity (PBK (human)): 98.2% | residual activity (PLK3 (human)): 98.7% | residual activity (PRKCB2 (human)): 104% | residual activity (RIPK2 (human)): 94.6% | residual activity (ROS1 (human)): 97.8% | residual activity (RPS6KA2 KD1 KD2 (human)): 100% | residual activity (RPS6KA5 KD2 (human)): 98.3% | residual activity (SGK3 (human)): 106% | residual activity (SIK2 (human)): 97.4% | residual activity (TLK2 (human)): 92.8% | residual activity (TSSK1B (human)): 100% | residual activity (WEE1 (human)): 86.2%

N#C/C(=C(/N)Sc1ccc(N)cc1)c1ccccc1C(F)(F)F
residual activity (ABL1 (human)): 106% | residual activity (ACVR1 (human)): 101% | residual activity (ADRBK2 (human)): 101% | residual activity (AKT3 (human)): 96.2% | residual activity (BLK (human)): 111% | residual activity (BRSK1 (human)): 91.2% | residual activity (CAMK1G (human)): 96.6% | residual activity (CDC42BPB (human)): 104% | residual activity (CDK3 CCNE1 (human)): 105% | residual activity (CDK5 CDK5R1 p25 (human)): 93.1% | residual activity (CDK7 CCNH MNAT1 (human)): 100% | residual activity (CSNK1D (human)): 106% | residual activity (CSNK1G2 (human)): 96.4% | residual activity (CSNK2A1 (human)): 97.9% | residual activity (DAPK3 (human)): 102% | residual activity (DYRK1A (human)): 93.9% | residual activity (DYRK1B (human)): 99.6% | residual activity (DYRK4 (human)): 92.4% | residual activity (EPHA5 (human)): 116% | residual activity (EPHA7 (human)): 105% | residual activity (FGFR4 (human)): 108% | residual activity (FLT3 (human)): 107% | residual activity (GRK4 (human)): 98.4% | residual activity (IGF1R (human)): 97.4% | residual activity (MAP4K5 (human)): 94% | residual activity (MAPK11 (human)): 112% | residual activity (MYLK2 (human)): 100% | residual activity (NEK2 (human)): 94.9% | residual activity (NEK3 (human)): 99.6% | residual activity (PBK (human)): 95.3% | residual activity (PLK3 (human)): 96.9% | residual activity (PRKCB2 (human)): 103% | residual activity (RIPK2 (human)): 91% | residual activity (ROS1 (human)): 94.4% | residual activity (RPS6KA2 KD1 KD2 (human)): 99.2% | residual activity (RPS6KA5 KD2 (human)): 97.9% | residual activity (SGK3 (human)): 105% | residual activity (SIK2 (human)): 101% | residual activity (TLK2 (human)): 92.5% | residual activity (TSSK1B (human)): 103% | residual activity (WEE1 (human)): 73.8%

CCOC(=O)c1c(C)[nH]c(/C=C2\C(=O)Nc3ccccc32)c1C
residual activity (ABL1 (human)): 95.4% | residual activity (ACVR1 (human)): 99.8% | residual activity (ADRBK2 (human)): 94.7% | residual activity (AKT3 (human)): 103% | residual activity (BLK (human)): 80.2% | residual activity (BRSK1 (human)): 92.6% | residual activity (CAMK1G (human)): 98.2% | residual activity (CDC42BPB (human)): 110% | residual activity (CDK3 CCNE1 (human)): 94% | residual activity (CDK5 CDK5R1 p25 (human)): 92.7% | residual activity (CDK7 CCNH MNAT1 (human)): 96.8% | residual activity (CSNK1D (human)): 96.4% | residual activity (CSNK1G2 (human)): 84.8% | residual activity (CSNK2A1 (human)): 114% | residual activity (DAPK3 (human)): 85.1% | residual activity (DYRK1A (human)): 95.7% | residual activity (DYRK1B (human)): 105% | residual activity (DYRK4 (human)): 99.6% | residual activity (EPHA5 (human)): 91.9% | residual activity (EPHA7 (human)): 85.3% | residual activity (FGFR4 (human)): 82.4% | residual activity (FLT3 (human)): 13.3% | residual activity (GRK4 (human)): 82.9% | residual activity (IGF1R (human)): 79.5% | residual activity (MAP4K5 (human)): 84.3% | residual activity (MAPK11 (human)): 97.5% | residual activity (MYLK2 (human)): 74.7% | residual activity (NEK2 (human)): 91.4% | residual activity (NEK3 (human)): 101% | residual activity (PBK (human)): 85% | residual activity (PLK3 (human)): 97.5% | residual activity (PRKCB2 (human)): 91.5% | residual activity (RIPK2 (human)): 88.3% | residual activity (ROS1 (human)): 99.1% | residual activity (RPS6KA2 KD1 KD2 (human)): 71.4% | residual activity (RPS6KA5 KD2 (human)): 91.8% | residual activity (SGK3 (human)): 88.1% | residual activity (SIK2 (human)): 99.9% | residual activity (TLK2 (human)): 96.5% | residual activity (TSSK1B (human)): 91.2% | residual activity (WEE1 (human)): 91.2%
